Test results published in patent US5597823A, “Tricyclic substituted hexahydrobenz [e]isoindole alpha-1 adrenergic antagonists” (priority 1995, dated 1997).
Where a name gives a salt, the structure may show the parent alone.

biological target: T1, α-1A adrenoceptor (dog prostate) (Canis lupus, UniProt A0A8I3NK63); assay: Functional antagonism: phenylephrine (PE)-induced contraction of canine prostate strips; assay type: cell-based; conditions: Table 2b; vs phenylephrine; Schild plot
T1 sequence (A0A8I3NK63 1-466): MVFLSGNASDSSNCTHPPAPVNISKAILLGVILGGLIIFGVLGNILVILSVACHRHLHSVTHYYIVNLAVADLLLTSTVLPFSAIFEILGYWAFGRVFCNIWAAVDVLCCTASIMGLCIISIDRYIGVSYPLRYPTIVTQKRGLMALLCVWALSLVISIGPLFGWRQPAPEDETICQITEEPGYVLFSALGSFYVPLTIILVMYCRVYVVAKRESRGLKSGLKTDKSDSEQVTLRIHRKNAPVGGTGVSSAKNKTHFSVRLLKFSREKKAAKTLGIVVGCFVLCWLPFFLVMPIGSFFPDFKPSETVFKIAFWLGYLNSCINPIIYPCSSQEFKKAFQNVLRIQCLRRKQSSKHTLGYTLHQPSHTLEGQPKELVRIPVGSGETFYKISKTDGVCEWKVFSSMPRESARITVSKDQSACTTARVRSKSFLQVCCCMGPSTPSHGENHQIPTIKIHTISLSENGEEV
Text: Functional assays indicative of pharmacologically defined α-1 adrenoceptors were used to further characterize compounds. Inhibition of phenylephrine (PE)-induced contraction of canine prostate smooth muscle can be correlated with α-1A adrenoceptor activation. […] For each of these models, agonist dose response curves were repeated against increasing concentrations of test agent to derive a Schild plot [log ([…]) against log (molarity of test agent)] to determine the pA2.
Canine prostate strips were used in vitro as previously described (Hieble, J. P., Boyce, A. J. and Caine, M., Fed. Proc., 45:2609-2614 (1986)), to determine antagonist potencies against phenylephrine-induced contractions.

In order of rising “pA2 Dog Prostate [α-1A]” value:
1. COc1cccc2c1[C@@H]1CN(CCCn3c(=O)[nH]c4c(sc5ccccc54)c3=O)C[C@@H]1CC2 (relative stereo) [Example 6, hydrochloride]  6.91
2. COc1cccc2c1CC[C@H]1CN(CCCCn3c(=O)[nH]c4c(sc5ccccc54)c3=O)C[C@@H]21 (relative stereo) [Example 12, 3-[4-(cis-6-Methoxy-2,3,3a,4,5,9b-hexahydro-[1H]-benz[e]isoindol-1-yl)butyl]-[1]benzothieno[3,2-d]pyrimidine-2,4(1H,3H)-dione hydrochloride]  7.33
3. COc1cccc2c1[C@@H]1CN(CCCCn3c(=O)[nH]c4c(sc5ccccc54)c3=O)C[C@@H]1CC2 (relative stereo) [Example 15, 3-[4-(cis-9-Methoxy-2,3,3a,4,5,9b-hexahydro-1H]-benz[e]isoindol-1-yl)butyl]-[1]benzothieno[3,2-d]pyrimidine-2,4(1H,3H)-dione hydrochloride]  7.34
4. O=c1[nH]c2c(sc3ccccc32)c(=O)n1CCN1C[C@@H]2CCc3c(O)cccc3[C@@H]2C1 (relative stereo) [Example 20, 3-2-(cis-6-Hydroxy-2,3,3a,4,5,9b-hexahydro-[1H]-benz[e]isoindol-1-yl)ethyl]-[1]benzothieno[3,2-d]pyrimidine-2,4(1H,3H) -dione hydrobromide]  7.43
5. COc1cccc2c1CC[C@H]1CN(CCn3c(=O)[nH]c4cc5ccccc5cc4c3=O)C[C@@H]21 (relative stereo) [Example 21, 3-[2-(cis-6-Methoxy-2,3,3a,4,5,9b-hexahydro-[1H]-benz[e]isoindol-1-yl)ethyl]-benzo[g]quinazoline-2,4(1H,3H):dione hydrochloride]  7.43
6. COc1cccc2c1CC[C@H]1CN(CCn3c(=O)[nH]c4sc5ccccc5c4c3=O)C[C@@H]21 (relative stereo) [Example 13, 3-[2-(cis-6-Methoxy-2,3,3a,4,5,9b-hexahydro-[1H]-benz[e]isoindol-1-yl)ethyl]-[1]benzothieno[2,3-d]pyrimidine-2,4(1H,3H)-dione hydrochloride]  7.68
7. COc1cccc2c1CC[C@H]1CN(CCn3cnc4c(sc5ccccc54)c3=O)C[C@@H]21 (relative stereo) [Example 28, dihydrochloride]  7.75
8. COc1cccc2c1[C@@H]1CN(CCn3c(=O)[nH]c4c(sc5ccccc54)c3=O)C[C@H]1CC2 (relative stereo) [Example 2, 3-[2-(trans-9-Methoxy-2,3,3a4,5,9b-hexahydro-[1H]-benz[e]isoindol-1-yl)ethyl]-[1]benzothieno[3,2-d]pyrimidine-2,4(1H,3H)-dione hydrochloride]  7.81
9. COc1cccc2c1CC[C@H]1CN(CCn3c(=O)[nH]c4sc5c(c4c3=O)CCCC5)C[C@@H]21 (relative stereo) [Example 7, 3-[2-(cis-6-Methoxy-2,3,3a4,5,9b-hexahydro-[1H]-benz[e]isoindol-1-yl)ethyl]-[1]-5,6,7,8-tetrahydrobenzothieno[2,3-d]pyrimidine-2,4(1H,3H)-dione hydrochloride]  7.85
10. COc1cccc2c1CC[C@H]1CN(CCn3c(=O)[nH]c4c5c(sc4c3=O)CCCC5)C[C@@H]21 (relative stereo) [Example 22, hydrochloride]  8.32
11. COc1cccc2c1CC[C@H]1CN(CCn3c(=O)[nH]c4c(oc5ccccc54)c3=O)C[C@@H]21 (relative stereo) [Example 3, 3-[2-(cis-6-Methoxy-2,3,3a,4,5,9b-hexahydro-1H]-benz[e]isoindol-1-yl)ethyl]-benzofuro[3,2-d]pyrimidine-2,4(1H,3H)-dione hydrochloride]  8.4
12. COc1cccc2c1CC[C@H]1CN(CCn3c(=O)[nH]c4c(oc5ncccc54)c3=O)C[C@@H]21 (relative stereo) [Example 27, 3-[2-(cis-6-Methoxy-2,3,3a,4,5,9b-hexahydro-[1H]-benz[e]isoindol-1-yl)ethyl]-pyrido[3',2':4,5]furo[3,2-d]pyrimidine-2,4(1H,3H)-dione hydrochloride]  8.72
